Measured values taken from the OligoGym collection.
Values joined by “and” are separate entries in the source; they are usually repeats but may differ in a detail not shown here. Equal entries are not always repeated. After the bases stand the sugars from the 5' end (letter, count) and the backbone: PS all phosphorothioate, else s phosphorothioate and o phosphodiester by linkage. Methylation of C is not given here. e = 2'-O-(2-methoxyethyl) (MOE); k = constrained ethyl (cEt); d = 2'-deoxy (DNA)

Target: IRF4
Settings: ASO

Row | Sequence | target mRNA inhibition (SK-MEL-28, 4 µM) [%] | target mRNA inhibition (MM.1R, 1 µM) | further results
1 | GAACGAGGTAAATCTT (sugars k3 d10 k3, PS) | 56 |  | 
2 | GAAGAATTTTAGCATC (sugars k3 d10 k3, PS) | 56 |  | 
3 | GAAGCACTGGCATTGA (sugars k3 d10 k3, PS) | 55 |  | 
4 | GAAGCATTTTATCATC (sugars k3 d9 k3 e1, PS) |  | 1% | 
5 | GAAGCATTTTATCATC (sugars kdddddddddkekeke, PS) |  | 4% | 
6 | GAAGCATTTTATCATC (sugars kkdddddddddkekek, PS) |  | -20% | 
7 | GAAGCATTTTATCATC (sugars kkkdddddddddkeke, PS) |  | 8% | 
8 | GAAGCATTTTATCATC (sugars kkkddddddddkekek, PS) |  | -5% | 
9 | GAAGCTTAGTTATCTG (sugars k3 d10 k3, PS) |  | 45% and 39% | 
10 | GAAGTTTACACTGGAT (sugars k2 d9 e3 k2, PS) |  | 28% | 
11 | GAAGTTTACACTGGAT (sugars kkdddddddddkekek, PS) |  | 55% | target mRNA inhibition (MM.1R, 0.074 µM): 6%; target mRNA inhibition (MM.1R, 0.222 µM): 22%; target mRNA inhibition (MM.1R, 0.666 µM): 49%; target mRNA inhibition (MM.1R, 2 µM): 75%
12 | GAATGCATAACACGGT (sugars k3 d10 k3, PS) | 61 |  | 
13 | GAATGCTCTCCATCAA (sugars k3 d10 k3, PS) | 45 |  | 
14 | GAATGGCGAGTTGGCA (sugars k3 d10 k3, PS) |  | 39% and 40% | 
15 | GAATGGCGCATAGGTC (sugars k3 d10 k3, PS) |  | 26% | 
16 | GAATGGCGGATAGATC (sugars k3 d10 k3, PS) |  | -3% | 
17 | GAATTAGGTGCTTAAT (sugars k3 d10 k3, PS) | 59 |  | 
18 | GACAAATCTTCTGCCT (sugars k3 d10 k3, PS) | 26 |  | 
19 | GACAAGTGGCGCAGAC (sugars k3 d10 k3, PS) | 11 |  | 
20 | GACAATGGAGATACTT (sugars k3 d10 k3, PS) |  | 33% and 37% | 

Row | Sequence | target mRNA inhibition (SK-MEL-28, 4 µM) [%] | target mRNA inhibition (MM.1R, 1 µM) | further results
21 | GACACTTTTAGAGAGG (sugars kkdddddddddekeke, PS) |  | 22% | 
22 | GACACTTTTAGAGAGG (sugars kkkddddddddkekek, PS) |  | -8% | 
23 | GACAGCTAAAGAACAC (sugars k3 d10 k3, PS) | 19 |  | 
24 | GACAGCTTCTTTGAAG (sugars k3 d10 k3, PS) | 36 |  | 
25 | GACAGTGACTTGCATC (sugars kddddddddddkekek, PS) |  | 8% | 
26 | GACATAAAGGACCCCG (sugars k3 d10 k3, PS) |  | 8% | 
27 | GACATATTTGCTTTGG (sugars k3 d10 k3, PS) | 58 |  | 
28 | GACCATGTTACACTTT (sugars k3 d10 k3, PS) | 50 |  | 
29 | GACGAACGCGCAAAAC (sugars k3 d10 k3, PS) |  | 15% | 
30 | GACGACAGCTGCGGAG (sugars k3 d10 k3, PS) | 45 |  | 
31 | GACTCCGGGAGCCTGG (sugars k3 d10 k3, PS) | 65 |  | 
32 | GACTGACAGCCGAAGC (sugars k3 d10 k3, PS) |  | 27% | 
33 | GACTGGAACATTGTTG (sugars k3 d10 k3, PS) |  | -41% | 
34 | GACTGGAGTGAACCCT (sugars k3 d10 k3, PS) |  | 38% | 
35 | GACTTAGTCAGAATCT (sugars k3 d10 k3, PS) |  | 10% | 
36 | GAGAAAACTCCTGAGT (sugars k3 d10 k3, PS) | 5 |  | 
37 | GAGAAACGGCCTGGAG (sugars k3 d10 k3, PS) | 44 |  | 
38 | GAGAGCCTTCACGCAC (sugars k3 d10 k3, PS) | 23 |  | 
39 | GAGATAGGAAGCACTG (sugars k3 d10 k3, PS) | 48 |  | 
40 | GAGATATTAATTACTG (sugars k3 d10 k3, PS) | 63 |  | 

Row | Sequence | target mRNA inhibition (SK-MEL-28, 4 µM) [%] | target mRNA inhibition (MM.1R, 1 µM) | further results
41 | GAGCCAACTTATAGCA (sugars k3 d10 k3, PS) |  | 11% and 8% | 
42 | GAGCTGCTTGGCTCCT (sugars k3 d10 k3, PS) | 19 |  | 
43 | GAGCTGTGATGAGCTT (sugars k3 d10 k3, PS) | 10 |  | 
44 | GAGCTTTCTTTGCCTC (sugars k3 d10 k3, PS) | 13 |  | 
45 | GAGGACCTCGCCTGCG (sugars k3 d10 k3, PS) | -2 |  | 
46 | GAGGACTTCGGGAGAT (sugars k3 d10 k3, PS) | 23 |  | 
47 | GAGGGTCTGGAAACTC (sugars k3 d10 k3, PS) | -4 |  | 
48 | GAGGTCTTTGGGATTC (sugars k3 d10 k3, PS) | 74 |  | 
49 | GAGGTTCGCTGAATTG (sugars k3 d10 k3, PS) | 30 |  | 
50 | GAGGTTGCCGAGATAT (sugars k3 d10 k3, PS) |  | 29% | 
51 | GAGTATTTCATAGCTA (sugars k3 d10 k3, PS) | 71 |  | 
52 | GAGTGTGCAGTTCCGT (sugars k3 d10 k3, PS) | 67 |  | 
53 | GAGTTACCGCATTGCT (sugars k3 d10 k3, PS) |  | 47% and 52% | target mRNA inhibition (MM.1R, 0.0625 µM): -9%; target mRNA inhibition (MM.1R, 0.25 µM): 16%; target mRNA inhibition (MM.1R, 4 µM): 81%
54 | GATAAGAAGCACTGGC (sugars k3 d10 k3, PS) | 63 |  | 
55 | GATATAAATAGCTGTT (sugars k3 d10 k3, PS) | 37 |  | 
56 | GATATTAGAGACTGTA (sugars k3 d10 k3, PS) | 51 |  | 
57 | GATCATCAACTTCTTT (sugars k3 d10 k3, PS) | 43 |  | 
58 | GATCGAGCGGTGAAAC (sugars k3 d10 k3, PS) | 23 |  | 
